Structures can show the parent of a compound that is named as a salt.

Data set [1] concerns Human osteosarcoma U2OS cells. The data set can be described thus: Acidic vesicle formation (lysosome/autolysosome staining, LysoView 633 / LysoTracker Deep Red), stimulation of autophagy. It is filed as cell-based. The settings on record: 24 hours; for activation at 0.8 µM: read-out: Activity (percentage increase in acidic vesicle formation over the DMSO-treated control); for activation at 10 µM: read-out: increase in acidic vesicle formation over the DMSO-treated control. As to the method: Lysosomes play a fundamental role in the autophagic pathway by fusing with autophagosomes and creating ‘autolysosomes’ in order to digest their contents. Stimulation of lysosome and autolysosome formation by a compound is indicative of a stimulation of autophagy. The ability of compounds to stimulate lysosome and autolysosome formation, and thus autophagy, in live cells was assessed via fluorescent microscopy using various fluorescent stains for labelling and tracking acidic organelles (including lysosomes and autolysosomes) such as: LysoView™ 650 (70059 and 70059-T, Biotium), LysoView™633 (70058 and 70058-T, Biotium) and LysoTracker™ Deep Red (L12492, ThermoFisher Scientific). The cellular phenotype was quantitatively assessed for the induction of acidic vesicle formation and compared to a non-treated control, thus providing a measure of the ability of the compound under investigation to stimulate autophagy.
Representative procedure using LysoView™633 dye or LysoTracker™ Deep Red dye: Human osteosarcoma U2OS cells (40,000 cells/well) were seeded in a 24 well glass bottom plate (Sensoplate, Greiner Bio-One) and were incubated overnight in a humidified atmosphere at 37° C. and 5% CO2. Cells were grown in DMEM (Gibco) supplemented with 10% Fetal Bovine Serum (FBS) and 100 units/ml penicillin and 100 μg/ml streptomycin (Invitrogen). After the attachment period, cells were treated with different compounds of interest (at various concentrations in DMSO) or DMSO (non-treated control) in cell culture medium and were incubated for 24 hours. Compound-containing medium was removed and cells were incubated with pre-warmed cell culture medium containing 1× LysoView™ 633 (70058 and 70058-T, Biotium) or 50 nM LysoTracker™ Deep Red (L12492, ThermoFisher Scientific) for 45 minutes at 37° C. Finally, cell nuclei were stained for 10 minutes using Hoechst 33342 (1 μg/mL) and then the medium was replaced with fresh medium. The 24 well plate was then fitted into a heated stage on the microscope and cells maintained at 37° C. Images were captured using appropriate filter set for Cy5 and DAPI detection with the EVOS M7000 Microscope (ThermoFisher Scientific). The cellular phenotype was visually assessed for the induction of acidic vesicle formation relative to the non-treated control; multiple images were acquired and analysed using ImageJ or Cell Profiler.

Data set [2] in a line: Bioavailability / brain exposure in CD1 mice. It is filed as in vivo. To be noted: dose of 30 mg/kg. As to the method:
The compounds have good properties for oral dosing and readily cross the blood brain barrier. For example, in CD1 mice, Compound 9 has a maximum concentration in brain plasma of 5067 ng/ml after 30 minutes at a dose of 30 mg/kg. Compound 12 has a maximum concentration in brain plasma of 5853 ng/ml after 8 hours at a dose of 30 mg/kg.

In data set [3] the test system is C57BL/6JRj mice injured by intra-nigral injections of alpha-synuclein and CBE. The data set can be described thus: Mouse model of Parkinson's disease (intra-nigral alpha-synuclein protofibrils plus CBE). The class given is in vivo. To be noted: 30 mg/kg per os on the first day, then 10 mg/kg per os once a day; for bar test: decrease in the mean time required to cross the bar compared to the α-syn/CBE injured group / bar test: reduction in the mean number of steps required to cross the bar compared to the α-syn/CBE injured group / bar test: reduction in the number of misplaced steps (failed strides) compared to the α-syn/CBE injured group: week 3; for decrease in the aggregation of α-syn in TH neurons (α-syn area) compared to the α-syn/CBE injured group / grid walking test: increase in the total distance travelled during the test / grid walking test: reduction in the mean number of failures per meter (number of missed steps) / increase in the number of dopaminergic TH positive neurons in the SNpc compared to the α-syn/CBE injured group: week 4. An excerpt:
This model (run by Neuro-Sys SAS, France) uses C57BL/6JRj mice injured by intra-nigral injections of a solution containing protofibrils of alpha-synuclein (α-syn, precisely quantified by automatic Western Blot) and combined with pharmacological inhibition of GBA by conduritol B epoxide (CBE), in aged mice. The model mimics the main pathologies of PD: loss of dopaminergic neurons in the substantia nigra, neuroinflammation, deficits in motor coordination and synucleinopathy (α-syn aggregation). Any substance with positive effects in this model may be useful as a new therapeutic agent for the treatment or prevention of PD.
• Type of animal: C57BL/6JRj (Male) • Age: 18 months old • Supplier: Janvier Labs • Animal number: 10 mice per group • Acclimation and clinical signs: Animals arrived on site 7 days (one week) before the experiment to allow optimal acclimation.
Overview: CBE was administered along with the test compounds, starting on the day of the stereotaxic injections of the α-syn oligomer preparation.
Test compounds at specific concentrations (see below) were administered per os (gavage or drinking water). • Test compound treatment: The test compounds were solubilized (vehicle=water), aliquoted and stored at −20° C. Aliquots were thawed overnight at 4° C. and given once a day. Treatment started on the day of the stereotaxic injections of α-syn preparation (Day 0). Treatment was administrated until the last day of the experiment (Day 28; =day of dissection). • CBE dose and administration: 50 mg/kg, Intraperitoneal (i.p.), twice a day. • CBE treatment: Administration of CBE (vehicle=saline [NaCl 0.9%] started on the day of the stereotaxic injections of α-syn preparation (Day 0). Treatment was administrated until the last day of the experiment (Day 28; =day of dissection), • Untreated control: vehicle (saline; i.p.) administered twice a day, • Stereotaxic injections of α-syn oligomers: Human α-syn peptide (stock at 69 μM in water at −20° C.) was reconstituted at 50 μM in NaCl, 0.9% (final concentration). All mice in compound treated groups were subjected to surgery and received 2.5 μL of α-syn solution. Mice were anesthetized by isoflurane (4%, for induction), in an induction chamber coupled with a vaporizer and to an oxygen concentrator. Mice were placed on the stereotaxic frame. Anesthesia was maintained by isoflurane (2%) with a face mask coupled to the isoflurane vaporizer and oxygen concentrator machine. The skull was exposed and holes were drilled. The α-syn preparation was bilaterally injected into the SNpc, at the following coordinates: A-P, −0.3 mm; M-L, +0.12 mm; D-V, −0.45 mm. Depth of anesthesia and rectal temperature were verified every 5 minutes. After surgery, mice were allowed to recover before being placed back in the cage.
• i) Body mass • ii) Assessment of motor coordination: bar test and grid walking test • iii) Dopaminergic Tyrosine hydroxylase (TH)-positive neuron survival in the substantia nigra pars compacta (SNpc), i.e. a measure of the number of TH neurons in the SNpc • iv) α-syn area in TH positive neurons (a measure of the degree of aggregation of α-syn in TH positive neurons, in the SNpc)
• Overall: For overall evaluation and body mass, mice were observed daily, and body mass was monitored prior to drug administration. • Assessment of motor coordination: bar test.
In the third week (Week 3) post-surgery, motor coordination of the mice was assessed with the bar test. The principle of the test is based on the capacity of the mice to cross a horizontal bar connected to a platform (18 mm of diameter, 60 cm long). The test requires good coordination between front and hindlimbs, and good balance. Mice are placed at one extremity of the bar and need to reach a platform located at the other side of the bar. Motor coordination was studied after two training sessions, one and two days before the test. Three sessions were recorded by a video camera system. […]

The subject of data set [4] is U2OS cell line stabling expressing RFP-eGFP-hLC3b. Nature of the data set: Tandem reporter assay (autophagic flux), RFP-only puncta (autolysosomes). The class given is cell-based. To be noted: Homo sapiens, 1.25 μM, average of two runs, read-out: Activity (Autolysosome % DMSO activity). How it is done:
Selected compounds of this invention were also assessed for their ability to stimulate autophagy using a U2OS cell line stabling expressing RFP-eGFP-hLC3b (a tandem reporter cell line). This assay is further described in WO 2023/089074.
LC3b is a protein found in the membrane of autophagosomes which has been used to generate genetic reporters of autophagy in cells. In these systems a tandem fusion of LC3b is engineered with two fluorescent proteins of different wavelengths: one which is acid sensitive (for example eGFP, which fluoresces green) and the other which is acid insensitive (for example RFP, which fluoresces red). Cells expressing RFP-eGFP-hLC3b can be examined using fluorescent microscopy: the autophagosomes present will fluoresce in both channels (either yellow in an overlay of both channels or puncta that are present in both the individual red and green channels) but the autolysosomes present will fluoresce in the RFP (red) channel only. Using a fluorescent microscope, the number of autophagosomes and autolysosomes can be counted, allowing for the monitoring of both the induction of autophagy (total puncta count) and the rate of autophagic flux (ratio of red-only to red-and-green puncta). The influence of small molecules on autophagy induction and flux can be assessed using this system by comparison to a non-treated control.
Representative Procedure: Human osteosarcoma U20S cells stably expressing RFP-eGFP-hLC3b were seeded (10,000 cells/well) into a 96-well glass-bottom plate (Cell Carrier Ultra, Perkin Elmer) in DMEM Glutamax media (Gibco) supplemented with 10% Fetal Bovine Serum (FBS) and antibiotics (100 μg/ml penicillin, 100 μg/ml streptomycin, Invitrogen), then incubated overnight in a humified atmosphere at 37° C. and 5% CO2. The cells were then treated with the compounds of interest, dissolved in DMSO, in a duplicated 5- or 10-point dose-response. 8 wells were treated with an equivalent volume of DMSO, 4 with 0.3 μM torin-1 as a positive control (MCE) and 4 wells with 0.4 μM torin-1 plus 0.2 μM bafilomycin (MCE) as a control for flux inhibition. The cells were returned to the incubator and the treatment continued for 24 hours. After treatment, the media was aspirated off and the cells fixed with a solution of 4% formaldehyde+1% glutaraldehyde (Sigma) in dPBS (plus magnesium and calcium, Gibco). Fixation was allowed to proceed for 15 minutes at room temperature then the fixative solution discarded and replaced with PBS (Gibco) plus Hoescht 33342 (1 μg/ml, Sigma). After 30 minutes the plates were imaged on an Opera Phenix confocal microscope (Perkin-Elmer) using a 40× water objective, collecting using DAPI, mCherry and GFP channels. Cells were detected based upon the staining of their nuclei with DAPI using the Harmony image analysis software (Perkin-Elmer) and the number of autophagosomes (GFP and RFP puncta) and autolysosomes (RFP only puncta) per cell were counted using the spot picking function within the software.

Turning to `CCOc1ccc(Cl)cc1CN1CCN[C@@H](C)C1.Cl` [Compound 9, (S)-1-(5-chloro-2-ethoxybenzyl)-3-methylpiperazine hydrochloride], in data set [1], the activation at 0.8 µM was 10 to 30% and the activation at 10 µM was at least 25%. Also, in data set [2], the “maximum concentration in brain plasma” value was determined as 5067 ng/mL and the “time of maximum concentration in brain plasma” value was found to be 30 min.
Take `CCOc1ccc(CN2CC[C@H](CN)C2)cc1Cl.Cl` [Compound 23, (R)-(1-(3-chloro-4-ethoxybenzyl)pyrrolidin-3-yl) methanamine hydrochloride]: the activation at 10 µM in data set [1] is at least 25%. In data set [3], the “bar test: decrease in the mean time required to cross the bar compared to the α-syn/CBE injured group” value stood at 11%, the “bar test: reduction in the mean number of steps required to cross the bar compared to the α-syn/CBE injured group” value worked out at 3%, the “bar test: reduction in the number of misplaced steps (failed strides) compared to the α-syn/CBE injured group” value was 39% and the “decrease in the aggregation of α-syn in TH neurons (α-syn area) compared to the α-syn/CBE injured group” value stood at 16%. In data set [3], the “grid walking test: increase in the total distance travelled during the test” value is recorded as 14%, the “grid walking test: reduction in the mean number of failures per meter (number of missed steps)” value stood at 14% and the “increase in the number of dopaminergic TH positive neurons in the SNpc compared to the α-syn/CBE injured group” value came out at 31%.
Consider `CCOc1ccc(CN2CC[C@@H](CN)C2)cc1Cl.Cl` [Compound 30, (S)-(1-(3-chloro-4-ethoxybenzyl)pyrrolidin-3-yl)methanamine hydrochloride], for which, in data set [1], the activation at 0.8 µM is over 100% and the activation at 10 µM was at least 25%. Also, in data set [3], the “bar test: decrease in the mean time required to cross the bar compared to the α-syn/CBE injured group” value was determined as 25%, the “bar test: reduction in the mean number of steps required to cross the bar compared to the α-syn/CBE injured group” value is given as 7%, the “bar test: reduction in the number of misplaced steps (failed strides) compared to the α-syn/CBE injured group” value came out at 19% and the “decrease in the aggregation of α-syn in TH neurons (α-syn area) compared to the α-syn/CBE injured group” value stood at 30%. Moreover, in data set [3], the “grid walking test: increase in the total distance travelled during the test” value is 36%, the “grid walking test: reduction in the mean number of failures per meter (number of missed steps)” value was determined as 28% and the “increase in the number of dopaminergic TH positive neurons in the SNpc compared to the α-syn/CBE injured group” value turned out to be 57%.
For `N[C@H]1CCN(CCc2ccc(OCC3CC3)c(Cl)c2)C1` [Compound 100, (S)-1-{2-[3-chloro-4-(cyclopropylmethoxy)phenyl]ethyl}-3-pyrrolidinylamine hydrochloride], the activity at 1.25 µM in data set [4] fell in the range of 150 to 200%.

The values are drawn from patent US20260193180A1, “AUTOPHAGY INDUCING COMPOUNDS AND USES THEREOF” (SAMSARA THERAPEUTICS INC., priority 2022, published 2026).
